Reference: US20220009920A1 (GB005, Inc., priority 2020, published 2022)
Where two headings read alike, the source gives them in different places.

Tests used:
BTK in RAMOS B cells = experiment: Assay to determine BTK activity in RAMOS B cells (anti-IgM, FLIPR Calcium 6); type: cell-based; details: anti-IgM EC80, calcium readout
CDK6/D3 = molecular target: T1, CDK6/D3 (Homo sapiens, UniProt Q00534); experiment: Large panel kinase profiling; type: biochemical; details: 1 μM test article, 1 mM ATP
T1 construct: AssayQuant Technologies, Inc. (ran the panel)
Procedure, shortened: (§1)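 With ATP fixed at 1 mM, each kinase was exposed to 1 μM compound in a PhosphoSens CSox-Sensor reaction. Sealed plates were incubated at 30° C. and read in kinetic mode.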

MAPK9/JNK2 = molecular target: T2, MAPK9/JNK2 (Homo sapiens, UniProt P45984); experiment: Large panel kinase profiling; type: biochemical; details: 1 μM test article, 1 mM ATP
T2 construct: AssayQuant Technologies, Inc. (service provider)
Procedure, shortened: as §1

CSNK2A2/CK2A2 = molecular target: T3, CSNK2A2/CK2A2 (Homo sapiens, UniProt P19784); experiment: Large panel kinase profiling; type: biochemical; details: 1 μM test article, 1 mM ATP
T3 construct: AssayQuant Technologies, Inc. (service laboratory)
Procedure, shortened: as §1

BTK = molecular target: T4, BTK (Homo sapiens, UniProt Q06187); experiment: Assay to determine activity against BTK; type: biochemical; details: 1 mM ATP, 2 nM BTK, 90 minutes at room temperature
T4 construct: purchased Cama
Procedure, shortened: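 Recombinant BTK (2 nM) was assayed with 1.5 µM FL-peptide and 1 mM ATP in pH 7.5 HEPES buffer with MgCl2, DTT, BSA and EGTA, for 90 min at room temperature before an EDTA stop. Peptide conversion ratio was read by mobility-shift, and IC50 came from 11-point 3-fold dilution curves.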

[1] = Plasma and total brain concentrations at 1 h post single oral administration to female C57BL/6 mice; type: in vivo; details: mouse, 10 mg/kg oral gavage; for Kp at 1 h: brain/plasma, read-out: brain to plasma ratio
Protocol: The appropriate amount of test article was dissolved 10% dimethylacetamide (DMA)/90% (20% hydroxypropyl-β-cyclodextrin (HP-B-CD) w/v in water to obtain a final concentration of 1 mg/mL for oral dosing. Sonication, vortex, and homogenization was used as needed. Three female C57BL/6 mice aged 7-9 weeks (20-30 grams) were dosed by oral gavage 10 mg/kg solution of the test article.
Concentrations of test compounds in the plasma and brain samples (use plasma and brain homogenate standard curve for all samples appropriately) were analyzed using LC-MS/MS. Compounds having a brain-to-plasma ratio of greater than 0.2 were considered brain penetrant.

[2] = plasma, read-out: Mean [plasma]

T4 sequence (Q06187 whole entry): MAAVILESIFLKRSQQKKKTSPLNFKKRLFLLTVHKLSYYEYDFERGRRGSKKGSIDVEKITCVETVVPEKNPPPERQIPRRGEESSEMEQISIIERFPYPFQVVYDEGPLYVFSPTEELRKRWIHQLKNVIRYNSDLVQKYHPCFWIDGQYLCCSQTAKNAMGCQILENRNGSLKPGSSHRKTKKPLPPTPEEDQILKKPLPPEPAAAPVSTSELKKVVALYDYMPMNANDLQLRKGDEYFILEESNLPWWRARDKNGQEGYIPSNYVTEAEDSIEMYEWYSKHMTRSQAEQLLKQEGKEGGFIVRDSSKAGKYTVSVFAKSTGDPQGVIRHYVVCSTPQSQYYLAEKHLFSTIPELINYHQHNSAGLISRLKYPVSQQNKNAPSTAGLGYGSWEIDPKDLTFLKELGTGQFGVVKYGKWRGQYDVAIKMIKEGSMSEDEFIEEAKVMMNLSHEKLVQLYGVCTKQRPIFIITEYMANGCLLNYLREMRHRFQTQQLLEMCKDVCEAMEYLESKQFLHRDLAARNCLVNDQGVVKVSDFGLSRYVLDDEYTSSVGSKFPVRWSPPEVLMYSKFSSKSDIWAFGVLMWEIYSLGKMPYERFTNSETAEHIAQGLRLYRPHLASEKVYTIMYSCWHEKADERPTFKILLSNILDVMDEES
T2 sequence (P45984 whole entry): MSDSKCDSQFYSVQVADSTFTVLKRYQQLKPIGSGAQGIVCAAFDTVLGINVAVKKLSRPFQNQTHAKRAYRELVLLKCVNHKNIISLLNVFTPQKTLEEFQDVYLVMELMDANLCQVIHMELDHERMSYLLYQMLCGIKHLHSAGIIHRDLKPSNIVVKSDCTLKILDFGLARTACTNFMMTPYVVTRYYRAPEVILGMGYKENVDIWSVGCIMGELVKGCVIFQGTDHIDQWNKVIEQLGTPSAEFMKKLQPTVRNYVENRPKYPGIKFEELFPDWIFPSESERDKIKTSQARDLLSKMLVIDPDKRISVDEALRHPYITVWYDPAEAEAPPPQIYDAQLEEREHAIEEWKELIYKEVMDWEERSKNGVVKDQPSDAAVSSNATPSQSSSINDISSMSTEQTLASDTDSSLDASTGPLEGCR
T1 sequence (Q00534 whole entry, species assumed): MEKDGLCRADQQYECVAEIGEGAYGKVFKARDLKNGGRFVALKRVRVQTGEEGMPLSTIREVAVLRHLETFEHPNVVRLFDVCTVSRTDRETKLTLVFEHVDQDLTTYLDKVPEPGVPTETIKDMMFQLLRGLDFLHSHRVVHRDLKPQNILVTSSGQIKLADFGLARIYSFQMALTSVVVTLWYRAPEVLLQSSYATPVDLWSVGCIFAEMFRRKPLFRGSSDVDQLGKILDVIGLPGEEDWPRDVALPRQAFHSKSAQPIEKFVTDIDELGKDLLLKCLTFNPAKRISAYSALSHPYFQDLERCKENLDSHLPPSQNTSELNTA
T1 sequence (P30281 whole entry partner, species assumed): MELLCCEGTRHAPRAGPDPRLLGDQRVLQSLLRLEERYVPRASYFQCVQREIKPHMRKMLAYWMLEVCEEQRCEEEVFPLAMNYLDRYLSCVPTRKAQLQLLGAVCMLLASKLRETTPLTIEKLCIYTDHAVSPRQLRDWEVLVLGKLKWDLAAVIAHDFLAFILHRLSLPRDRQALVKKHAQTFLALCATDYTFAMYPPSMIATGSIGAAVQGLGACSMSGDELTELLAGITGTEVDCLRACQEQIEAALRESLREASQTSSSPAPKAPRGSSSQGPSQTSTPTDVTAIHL
T3 sequence (P19784 whole entry): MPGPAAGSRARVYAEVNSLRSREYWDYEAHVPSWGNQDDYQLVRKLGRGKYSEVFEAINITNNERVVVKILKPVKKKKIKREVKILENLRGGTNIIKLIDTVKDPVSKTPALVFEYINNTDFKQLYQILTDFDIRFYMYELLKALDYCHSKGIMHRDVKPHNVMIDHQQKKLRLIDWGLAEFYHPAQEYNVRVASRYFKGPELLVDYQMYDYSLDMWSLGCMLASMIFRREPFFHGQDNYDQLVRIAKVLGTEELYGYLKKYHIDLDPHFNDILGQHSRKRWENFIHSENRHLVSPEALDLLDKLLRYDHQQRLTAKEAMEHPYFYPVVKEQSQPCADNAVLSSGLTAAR

Structure (SMILES)	IC50 (BTK in RAMOS B cells)	inhibition at 1 µM (CDK6/D3)	inhibition at 1 µM (MAPK9/JNK2)	inhibition at 1 µM (CSNK2A2/CK2A2)	IC50 (BTK)	concentration at 1 h ([1]; brain, read-out: Mean [brain])	Kp at 1 h [1]	concentration at 1 h [1, 2]	IC50 (BTK in RAMOS B cells; Homo sapiens, Ramos)
C=CC(=O)N1CCCC(c2c(F)cc(C(N)=O)c3[nH]c4c(c23)CCCCC4)C1 (single isomer, unassigned) [Compound 5-6]	< 10 nM	-8%	-6.3%	11.4%	< 10 nM	16 ng/g	0.4	42 ng/mL	
C=CC(=O)N1CCC[C@@H](c2c(F)cc(C(N)=O)c3[nH]c4c(c23)CC2(CC4)CC2)C1 [Compound 6-2, (S)-5-(1-acryloylpiperidin-3-yl)-6-fluoro-1,2,4,9-tetrahydrospiro[carbazole-3,1′-cyclopropane]-8-carboxamide]		-6.1%	19.7%	-141%	< 10 nM	18 ng/g	0.24	78 ng/mL	< 10 nM
C=CC(=O)N1CCC[C@@H](c2c(F)cc(C(N)=O)c3[nH]c4c(c23)CCC4)C1 [Compound 10-2, (S)-8-(1-acryloylpiperidin-3-yl)-7-fluoro-1,2,3,4-tetrahydrocyclo-penta[b]indole-5-carboxamide]		-18.4%	3.8%	-144%	< 10 nM	72 ng/g	0.37	191 ng/mL	< 10 nM
